The values below are quoted from earlier work in patent US20070032555A1, “Novel aryloxyphenyl-propanamines” (priority 2005, published 2007).

For data set [1] the following is noted: humans, FDA Talk Paper T04-60.
Data set [2] has as its system 6-hydroxydopamine-lesion rats.

For `CNCC[C@@H](Oc1ccccc1C)c1ccccc1` [Compound 1, (R)-N-methyl-3-phenyl-3-(o-tolyloxy)propan-1-amine], in data set [1], the hepatotoxicity result is listed as “rare but very severe hepatotoxicity”. Further, where the note is “CYP2D6 poor metabolisers (PM)”, the half life was 62 h. Also, the mean half life (healthy volunteers, CYP2D6 extensive metabolizers (EM)) was 18 h. Also, the “increase of total exposure, measured as AUC0-τ” value (poor metabolisers (PM) versus extensive metabolizers (EM)) was 8-10 fold. The motor hyperactivity entry in data set [2] is reported as “reductions in their motor hyperactivity”.
